Columns and labels:
[1] = In vitro release of stem cell recruitment factor (SP) and VP from hydrogels; type: physicochemical; conditions: physiological saline, 37° C., 100 rpm, 28 days; CHHA+SP and CHHA-VP+SP hydrogels
Procedure: First, an HA+VP solution was prepared by simply mixing VP with the HA solution prepared in Example 3 at a concentration of 320 μg/mL, and SP, which is a stem cell recruitment factor, was mixed with each of the HA solution and HA-VP solution at a concentration of 2 μg/mL to prepare an HA+SP solution and HA−VP+SP solution, respectively.
Next, 100 μL of the CH solution and 100 μL of the HA+VP solution were mixed in a vial to prepare 200 μL of a CHHA+VP hydrogel, and 100 μL of the CH solution and 100 μL of the HA-VP solution were mixed in a vial to prepare 200 μL of a CHHA-VP hydrogel.
In addition, 100 μL of the CH solution and 100 μL of HA+SP solution were mixed in a vial to prepare 200 μL of a CHHA+SP hydrogel, and 100 μL of the CH solution and 100 μL of the HA-VP+SP solution were mixed in a vial to prepare 200 μL of a CHHA-VP+SP hydrogel.
3 mL of a physiological saline was placed in each vial and stored in an incubator at 100 rpm and 37° C., and after taking 1 mL of the physiological saline from the vial at a predetermined time, 1 mL of a new physiological saline was added to the vial, and it was carried it out for 28 days to conduct a release experiment.

[2] = tested on: human-derived mesenchymal stem cells (hMSCs); assay: SP's ability to recruit stem cells (trans well migration); type: cell-based
Procedure: First, human-derived mesenchymal stem cells (hMSCs) were labeled with PKH 26 dye (Sigma, USA) and then dispensed in the upper chamber (8.0 μm pore size) of a 24-well trans well plate (SPL, Korea) to be 5×10^4 cells. After culturing in the upper chamber for 48 hours using serum-free DMEM (Dubelco's modified eagle medium, Gibco, USA) medium, DMEM containing 1 μg/mL SP and 1% FBS (fetal bovine serum, Gibco, USA) was added to the bottom well, and the medium was replaced every 3 days, and the hMSCs that migrated to the bottom well were observed using a fluorescence microscope (Olympus, Japan). As a control group, DMEM (including 1% FBS) without SP was added to the bottom well and observed.

[3] = 1 μg/mL SP in bottom well, DMEM with 1% FBS

## Substance P [SP]
[1]
  release of SP from hydrogel: release of SP occurred regardless of the chemical introduction of VP
[2]; [3]
  Migration rate of hMSC: 1.9 × 10^3 cells/day
  Rate constant: -0.49 day⁻¹
[2]; SP present compared with SP absent
  cells migrated to the lower side: more cells migrated to the lower side
[2]; SP relative to Cont (no SP)
  Relative migration rate: 1.7

Reference: patent publication US20220409775A1, “INJECTABLE HYDROGEL COMPOSITION HAVING ENDOGENOUS PROGENITOR OR STEM CELL RECRUITMENT AND INDUCTION OF VASCULAR DIFFERENTIATION OF RECRUITED CELLS” (Ajou University Industry-Academic Cooperation Foundation, priority 2019, published 2022)
